US20100021379A1, “Chemical Antibodies for Immunotherapy and Imaging” (The Regents of the University of California, priority 2006, published 2010)

Tested on: K562 cells transfected with the alpha4 integrin subunit
Conditions: ligand alone
Protocol: K562 cells express the betal integrin subunit, but not the alpha4 integrin subunit. Staining was quantified by FLOW cytometry, which was performed on a Coulter® XL-MCL™ Flow Cytometer (Beckman Coulter, Inc.; Fullerton, Calif.). Cells were harvested and adjusted to a concentration of 1×10^6 cells/ml in TBS plus 1 mM CaCl2 and MnCl2. Fc-ligand antibody conjugates, Fc fragments, or ligands were then incubated at various concentrations with cells for 1 hour at room temperature. Cells were centrifuged at 1000 RPM for 5 minutes, liquid was aspirated, and cells were resuspended and spun down again. Cells were then incubated with a detecting agent, e.g., 1:1000 streptavidin-PE or 1:500 anti-human Fc-FITC (Sigma-Aldrich Co.) for 1 h at room temperature. Cells were washed two times as described above and then resuspended in PBS at a concentration of 1×10^6 cells/ml. Cellular fluorescence was visualized using a fluorescent microscope.

## Cc1ccccc1NC(=O)Nc1ccc(CC(=O)N[C@@H](CCCCNC(=O)/C=C/c2cccnc2)C(=O)N[C@@H](CCCC(=O)O)C(=O)NC2(C(=O)NCCOCCOCCNC(=O)CCC(=O)N[C@@H](Cc3ccc(O)c(O)c3)C(=O)NCCOCCOCCNC(=O)CCC(=O)NCCOCCOCCNC(=O)CCC(=O)N[C@@H](CCCCNC(=O)CCCC[C@@H]3SC[C@@H]4NC(=O)N[C@@H]43)C(N)=O)CCCCC2)cc1 [Ligand 2A-DOPA-Biotin]
  IC50: 2 pM
